# Measured values as given in patent US11000571B2 (priority 2016, dated 2021).
# Read-outs that look alike come from different tables or passages of the source.
# Legend:
# [1] = system: intracerebral hemorrhage (“ICH”) mouse model; design: species or system C57BL/6J mice; details: in vivo
# [2] = system: MMP-9 (metalloproteinase-9); design: species or system C57BL/6J mice; details: mouse, in vivo
# [3] = system: cultured neurons and astrocytes; details: cited from earlier work
Substance,behavioral and neurological deficits following induction of ICH (overall) [1],circling behavior [1],sensory response component of 28-point scale [1],neurofunction (pilot studies) ([1]; 16 mg/kg),sensory response component of 28-point scale ([1]; 16 mg/kg),sensory response component of 28-point scale ([1]; 32 mg/kg),MMP9 serum levels [2],kill of cultured neurons and astrocytes [3]
PHGGGWGQPHGGGWGQ [SEQ ID NO:3],efficacious at diminishing the behavioral and neurological deficits,exception,improved at statistically significant levels,improved neurofunction,improved at statistically significant levels,improved at statistically significant levels,diminished,
Hemin,,,,,,,,60%-70%
